The text below walks through data of PubChem BioAssay AID1259407 (Chemical Carcinogenesis Research Information System (CCRIS), 2018).

The test system of the series is CCRIS mutagenicity, Ames/micronucleus/aberration tests. In words: CCRIS mutagenicity studies.
Setting [1] is: Test System: AMES SALMONELLA TYPHIMURIUM, Strain/Indicator: TA98, Metabolic Activation: NONE, Method: STANDARD PLATE.
Setting [2] is: Test System: AMES SALMONELLA TYPHIMURIUM, Strain/Indicator: TA100, Metabolic Activation: NONE, Method: STANDARD PLATE.
Where [3] appears, read: Test System: AMES SALMONELLA TYPHIMURIUM, Strain/Indicator: TA1535, Metabolic Activation: NONE, Method: STANDARD PLATE.

Active and inactive are the calls of the source. How the calls were made is not given here.

Regarding `CC(C)[N+](C)(CCOC(=O)C1c2ccccc2Oc2ccccc21)C(C)C`, the mutagenic call by setting is: (End Point: IN VITRO CHROMOSOMAL ABERRATIONS, Test System: CHINESE HAMSTER OVARY CELLS, Metabolic Activation: NONE) “inactive; negative”; (End Point: IN VITRO CHROMOSOMAL ABERRATIONS, Test System: CHINESE HAMSTER OVARY CELLS, Metabolic Activation: RAT, LIVER, S-9, AROCLOR 1254) “inactive; negative”; (Test System: AMES SALMONELLA TYPHIMURIUM, Strain/Indicator: TA97, Metabolic Activation: HAMSTER, LIVER, S-9, AROCLOR 1254 (10 OR 30%), Method: PREINCUBATION) “inactive; negative”; (Test System: AMES SALMONELLA TYPHIMURIUM, Strain/Indicator: TA97, Metabolic Activation: NONE, Method: PREINCUBATION) “inactive; negative”; (Test System: AMES SALMONELLA TYPHIMURIUM, Strain/Indicator: TA97, Metabolic Activation: RAT, LIVER, S-9, AROCLOR 1254 (10%), Method: PREINCUBATION) “inactive; negative”; (Test System: AMES SALMONELLA TYPHIMURIUM, Strain/Indicator: TA97, Metabolic Activation: RAT, LIVER, S-9, AROCLOR 1254 (30%), Method: PREINCUBATION) “inactive; negative”. Besides, the mutagenic call is, setting by setting: (Test System: AMES SALMONELLA TYPHIMURIUM, Strain/Indicator: TA98, Metabolic Activation: HAMSTER, LIVER, S-9, AROCLOR 1254 (10%), Method: PREINCUBATION) “inactive; negative”; (Test System: AMES SALMONELLA TYPHIMURIUM, Strain/Indicator: TA98, Metabolic Activation: HAMSTER, LIVER, S-9, AROCLOR 1254 (30%), Method: PREINCUBATION) “inactive; negative”; (Test System: AMES SALMONELLA TYPHIMURIUM, Strain/Indicator: TA98, Metabolic Activation: NONE, Method: PREINCUBATION) “inactive; negative”; (Test System: AMES SALMONELLA TYPHIMURIUM, Strain/Indicator: TA98, Metabolic Activation: RAT, LIVER, S-9, AROCLOR 1254 (10%), Method: PREINCUBATION) “inactive; negative”; (Test System: AMES SALMONELLA TYPHIMURIUM, Strain/Indicator: TA98, Metabolic Activation: RAT, LIVER, S-9, AROCLOR 1254 (30%), Method: PREINCUBATION) “inactive; negative”; (Test System: AMES SALMONELLA TYPHIMURIUM, Strain/Indicator: TA100, Metabolic Activation: HAMSTER, LIVER, S-9, AROCLOR 1254 (10%), Method: PREINCUBATION) “inactive; negative”. In addition, the mutagenic call was “inactive; negative” (Test System: AMES SALMONELLA TYPHIMURIUM, Strain/Indicator: TA100, Metabolic Activation: HAMSTER, LIVER, S-9, AROCLOR 1254 (30%), Method: PREINCUBATION); “inactive; negative” (Test System: AMES SALMONELLA TYPHIMURIUM, Strain/Indicator: TA100, Metabolic Activation: NONE, Method: PREINCUBATION); “inactive; negative” (Test System: AMES SALMONELLA TYPHIMURIUM, Strain/Indicator: TA100, Metabolic Activation: RAT, LIVER, S-9, AROCLOR 1254 (10%), Method: PREINCUBATION); “inactive; negative” (Test System: AMES SALMONELLA TYPHIMURIUM, Strain/Indicator: TA100, Metabolic Activation: RAT, LIVER, S-9, AROCLOR 1254 (30%), Method: PREINCUBATION); “inactive; negative” (Test System: AMES SALMONELLA TYPHIMURIUM, Strain/Indicator: TA1535, Metabolic Activation: HAMSTER, LIVER, S-9, AROCLOR 1254 (10%), Method: PREINCUBATION); “inactive; negative” (Test System: AMES SALMONELLA TYPHIMURIUM, Strain/Indicator: TA1535, Metabolic Activation: HAMSTER, LIVER, S-9, AROCLOR 1254 (30%), Method: PREINCUBATION). For the same compound, the mutagenic call reads like this: (Test System: AMES SALMONELLA TYPHIMURIUM, Strain/Indicator: TA1535, Metabolic Activation: NONE, Method: PREINCUBATION) “inactive; negative”; (Test System: AMES SALMONELLA TYPHIMURIUM, Strain/Indicator: TA1535, Metabolic Activation: RAT, LIVER, S-9, AROCLOR 1254 (10%), Method: PREINCUBATION) “inactive; negative”; (Test System: AMES SALMONELLA TYPHIMURIUM, Strain/Indicator: TA1535, Metabolic Activation: RAT, LIVER, S-9, AROCLOR 1254 (30%), Method: PREINCUBATION) “inactive; negative”; (Test System: AMES SALMONELLA TYPHIMURIUM, Strain/Indicator: TA1537, Metabolic Activation: HAMSTER, LIVER, S-9, AROCLOR 1254 (10%), Method: PREINCUBATION) “inactive; negative”; (Test System: AMES SALMONELLA TYPHIMURIUM, Strain/Indicator: TA1537, Metabolic Activation: NONE, Method: PREINCUBATION) “inactive; negative”; (Test System: AMES SALMONELLA TYPHIMURIUM, Strain/Indicator: TA1537, Metabolic Activation: RAT, LIVER, S-9, AROCLOR 1254 (10%), Method: PREINCUBATION) “inactive; negative”.

On to `CC(C)(Br)C(=O)O`, for which the mutagenic call is, setting by setting: (End Point: IN VITRO CHROMOSOMAL ABERRATIONS, Test System: CHL CELLS, Metabolic Activation: NONE) “active; positive (structural changes)”; (End Point: IN VITRO CHROMOSOMAL ABERRATIONS, Test System: CHL CELLS, Metabolic Activation: RAT, LIVER, S-9, SODIUM PHENOBARBITAL AND 5,6-BENZOFLAVONE) “active; positive (structural changes)”.

In the case of `N#CC1=Cc2cccc3cccc1c23`, the mutagenic call is “inactive; negative” under setting [1]; “inactive; negative” (Test System: AMES SALMONELLA TYPHIMURIUM, Strain/Indicator: TA98, Metabolic Activation: RAT, LIVER, S-9, AROCLOR 1254, Method: STANDARD PLATE); “active; positive” under setting [2]; “active; positive” (Test System: AMES SALMONELLA TYPHIMURIUM, Strain/Indicator: TA100, Metabolic Activation: RAT, LIVER, S-9, AROCLOR 1254, Method: STANDARD PLATE).

With `COc1cccc2c1CC([N+](=O)[O-])c1ccc3c(c1-2)OCO3` (configuration not stated), the mutagenic call runs as follows: (Test System: AMES SALMONELLA TYPHIMURIUM, Strain/Indicator: D3052, Metabolic Activation: NONE, Method: STANDARD PLATE) “inactive; negative”; (Test System: AMES SALMONELLA TYPHIMURIUM, Strain/Indicator: D3052, Metabolic Activation: RAT, LIVER, S-9, PHENOBARBITAL, Method: STANDARD PLATE) “inactive; negative”; (Test System: AMES SALMONELLA TYPHIMURIUM, Strain/Indicator: G46, Metabolic Activation: NONE, Method: STANDARD PLATE) “inactive; negative”; (Test System: AMES SALMONELLA TYPHIMURIUM, Strain/Indicator: G46, Metabolic Activation: RAT, LIVER, S-9, PHENOBARBITAL, Method: STANDARD PLATE) “inactive; negative”; under setting [1], “active; positive”; (Test System: AMES SALMONELLA TYPHIMURIUM, Strain/Indicator: TA98, Metabolic Activation: RAT, LIVER, S-9, PHENOBARBITAL, Method: STANDARD PLATE) “active; positive”. For the same compound, the mutagenic call runs as follows: under setting [2], “active; positive”; (Test System: AMES SALMONELLA TYPHIMURIUM, Strain/Indicator: TA100, Metabolic Activation: RAT, LIVER, S-9, PHENOBARBITAL, Method: STANDARD PLATE) “active; positive”; under setting [3], “active; positive”; (Test System: AMES SALMONELLA TYPHIMURIUM, Strain/Indicator: TA1535, Metabolic Activation: RAT, LIVER, S-9, PHENOBARBITAL, Method: STANDARD PLATE) “active; positive”; (Test System: AMES SALMONELLA TYPHIMURIUM, Strain/Indicator: TA1978, Metabolic Activation: NONE, Method: STANDARD PLATE) “inactive; negative”; (Test System: AMES SALMONELLA TYPHIMURIUM, Strain/Indicator: TA1978, Metabolic Activation: RAT, LIVER, S-9, PHENOBARBITAL, Method: STANDARD PLATE) “inactive; negative”.

With `CCN(CCCl)CCCNc1c2ccccc2nc2c1ccc1cccnc12`, the mutagenic call under setting [1] is “active; positive”; the mutagenic call under setting [2] was “active; positive”; the mutagenic call under setting [3] was “inactive; negative”; the mutagenic call (Test System: AMES SALMONELLA TYPHIMURIUM, Strain/Indicator: TA1536, Metabolic Activation: NONE, Method: STANDARD PLATE) is “active; positive”; the mutagenic call (Test System: AMES SALMONELLA TYPHIMURIUM, Strain/Indicator: TA1537, Metabolic Activation: NONE, Method: STANDARD PLATE) is “active; positive”; the mutagenic call (Test System: AMES SALMONELLA TYPHIMURIUM, Strain/Indicator: TA1538, Metabolic Activation: NONE, Method: STANDARD PLATE) was “active; positive”.

With `C#CCc1ccc(COC(=O)C2C(C=C(C)C)C2(C)C)o1` (configuration not stated), the mutagenic call is “inactive; negative” (Test System: AMES SALMONELLA TYPHIMURIUM, Strain/Indicator: TA98); “inactive; negative” (Test System: AMES SALMONELLA TYPHIMURIUM, Strain/Indicator: TA98, Metabolic Activation: NONE); “active; positive” (Test System: AMES SALMONELLA TYPHIMURIUM, Strain/Indicator: TA100); “inactive; negative” (Test System: AMES SALMONELLA TYPHIMURIUM, Strain/Indicator: TA100, Metabolic Activation: NONE).
